In patent US20200339548A1, “PYRIMIDINE DERIVATIVES AND THEIR USE FOR THE TREATMENT OF CANCER” (Adorx Therapeutics Limited, priority 2017, published 2020):
pKi: −log10 of the molar value. Like-named read-outs stand apart in the source and are kept apart here.

Columns and labels:
[1] = target: T1, Adenosine A2b receptor (Homo sapiens, UniProt P29275); assay: Adenosine receptor TR-FRET binding assay, A2b; conditions: Table 9, further testing; displacement of 30 nM CA200645, CHO cell membranes
T1 construct: expressed in transfected cells; host or cells: CHO cell membranes
T1 sequence (P29275 1-332): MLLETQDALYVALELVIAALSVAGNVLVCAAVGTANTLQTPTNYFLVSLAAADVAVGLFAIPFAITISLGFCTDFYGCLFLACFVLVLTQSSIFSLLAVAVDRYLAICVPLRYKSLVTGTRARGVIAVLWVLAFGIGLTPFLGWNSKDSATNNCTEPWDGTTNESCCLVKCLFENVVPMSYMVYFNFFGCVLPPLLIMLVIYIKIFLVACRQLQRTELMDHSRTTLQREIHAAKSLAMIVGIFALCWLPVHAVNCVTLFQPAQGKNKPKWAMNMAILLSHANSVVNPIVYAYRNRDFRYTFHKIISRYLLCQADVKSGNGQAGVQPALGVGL
In short: (§1)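 Competition TR-FRET binding in CHO cell membranes expressing terbium-labelled human receptors, displacing fluorescent XAC (CA200645; 30 nM for A2b, 100 nM for A1, A2a, A3); 2 h at room temperature with saponin buffer, 1% DMSO. 665/620 nm ratio; non-specific with 10 μM XAC; Ki by Cheng–Prusoff from IC50.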

[2] = tested on: Human PBMCs; assay: CD3/CD28 stimulated IL-2 release NECA reversal assay; assay type: cell-based; conditions: Homo sapiens, PBMC, read-out: IL-2 release NECA reversal IC50 (nM), 1 uM NECA, 24 hours
Experimental: Blood is drawn from healthy volunteers using sodium citrate as the anticoagulant (0.3% final concentration). […] 50 μl diluted compound mix is added to the cells, to obtain final concentrations of 1 ug/ml CD28 antibody, 1 uM NECA and 0.003-10 μM adenosine receptor antagonist. Assay plates are incubated for 24 hours at 37° C. in a humidified incubator.

[3] = target: T2, Adenosine A1 receptor (Homo sapiens, UniProt P30542); assay: Adenosine receptor TR-FRET binding assay, A1; conditions: Table 9, further testing; displacement of 100 nM CA200645, CHO cell membranes
T2 construct: expressed in transfected cells; host or cells: CHO cell membranes
T2 sequence (P30542 1-326): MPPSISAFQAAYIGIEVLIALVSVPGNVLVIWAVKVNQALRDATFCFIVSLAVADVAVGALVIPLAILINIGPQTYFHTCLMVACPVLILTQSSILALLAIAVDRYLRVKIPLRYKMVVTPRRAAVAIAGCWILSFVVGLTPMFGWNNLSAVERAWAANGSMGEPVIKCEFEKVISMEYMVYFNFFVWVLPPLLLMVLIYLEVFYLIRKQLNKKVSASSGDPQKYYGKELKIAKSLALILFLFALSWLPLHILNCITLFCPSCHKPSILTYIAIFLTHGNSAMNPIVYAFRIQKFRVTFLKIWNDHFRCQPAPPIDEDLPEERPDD
In short: as §1

[4] = target: T3, Adenosine A2a receptor (Homo sapiens, UniProt P29274); assay: Adenosine receptor TR-FRET binding assay, A2a; conditions: displacement of 100 nM CA200645, CHO cell membranes
T3 construct: expressed in transfected cells; host or cells: CHO cell membranes
T3 sequence (P29274 whole entry): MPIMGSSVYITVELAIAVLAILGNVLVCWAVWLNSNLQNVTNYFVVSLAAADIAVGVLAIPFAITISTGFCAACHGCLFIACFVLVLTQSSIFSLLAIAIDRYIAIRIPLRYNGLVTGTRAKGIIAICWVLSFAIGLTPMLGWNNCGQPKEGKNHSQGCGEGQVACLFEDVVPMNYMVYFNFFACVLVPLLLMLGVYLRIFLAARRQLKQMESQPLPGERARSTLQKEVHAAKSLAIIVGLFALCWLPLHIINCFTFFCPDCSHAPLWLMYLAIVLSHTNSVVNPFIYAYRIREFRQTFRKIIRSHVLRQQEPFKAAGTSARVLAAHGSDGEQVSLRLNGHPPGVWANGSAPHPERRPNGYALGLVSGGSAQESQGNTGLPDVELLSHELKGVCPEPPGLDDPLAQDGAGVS
In short: as §1

[5] = target: T4, Adenosine A3 receptor (Homo sapiens, UniProt P0DMS8); assay: Adenosine receptor TR-FRET binding assay, A3
T4 construct: expressed in transfected cells; host or cells: CHO cell membranes
T4 sequence (P0DMS8 1-318): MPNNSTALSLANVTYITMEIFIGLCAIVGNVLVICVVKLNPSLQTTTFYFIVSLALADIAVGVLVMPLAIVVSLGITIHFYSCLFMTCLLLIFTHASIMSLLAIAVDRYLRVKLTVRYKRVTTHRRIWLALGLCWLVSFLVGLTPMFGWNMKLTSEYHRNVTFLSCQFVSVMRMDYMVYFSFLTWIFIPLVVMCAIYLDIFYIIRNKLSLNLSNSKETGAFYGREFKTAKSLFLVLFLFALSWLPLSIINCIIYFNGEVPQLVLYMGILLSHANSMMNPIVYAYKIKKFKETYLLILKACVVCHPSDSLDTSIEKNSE
In short: as §1

[6] = Table 9, further testing, displacement of 100 nM CA200645, CHO cell membranes, read-out: A3 Ki

SMILES	pKi [1]	pKi [3]	pKi ([4]; Table 8, Cheng and Prusoff)	pKi ([4]; Table 9, further testing)	pKi [5, 6]	IC50 [2]	pKi [5]
Nc1nc(-c2ccco2)ncc1C(=O)NCc1c(Cl)cccc1Cl [Example 5.16, 4-Amino-N-[(2,6-dichlorophenyl)methyl]-2-(2-furyl)pyrimidine-5-carboxamide]	6.53	5.87	9.03	9.19		102 nM	
Nc1nc(-c2ccco2)ncc1C(=O)NC1Cc2ccccc2C1 [Example 5.24, 4-Amino-2-(2-furyl)-N-indan-2-yl-pyrimidine-5-carboxamide]	5.79	5.90	8.62	8.59		364 nM	
Cc1cccnc1CNC(=O)c1nnc(-c2cccc(C#N)c2)nc1N [Example 17, 5-Amino-3-(3-cyanophenyl)-N-[(3-methyl-2-pyridyl)methyl]-1,2,4-triazine-6-carboxamide]	6.39	6.12	8.42	8.62	6.35	309 nM	
Nc1nc(-c2ccco2)ncc1C(=O)NCc1cccc(Cl)c1 [Example 5.12, 4-Amino-N-[(3-chlorophenyl)methyl]-2-(2-furyl)pyrimidine-5-carboxamide]	5.80	6.02	8.39	8.41	5.94	345 nM	
COc1ccccc1CNC(=O)c1cnc(-c2ccco2)nc1N [Example 5.20, 4-Amino-2-(2-furyl)-N-[(2-methoxyphenyl)methyl]pyrimidine-5-carboxamide]	5.92	6.37	8.96	9.02	6.12	122 nM	
COc1cccc(F)c1CNC(=O)c1cnc(-c2cccc(F)c2)nc1N [Example 5.2, 4-Amino-N-[(2-fluoro-6-methoxy-phenyl)methyl]-2-(3-fluorophenyl)pyrimidine-5-carboxamide]	6.95	7.18	7.70	7.70		1920 nM	
Nc1nc(-c2ccco2)ncc1C(=O)NCc1ncccc1Cl [Example 5.21, 4-Amino-N-[(3-chloro-2-pyridyl)methyl]-2-(2-furyl)pyrimidine-5-carboxamide]	5.94	5.73	8.82	8.82		123 nM	5.93
Nc1nc(-c2ccco2)ncc1C(=O)NC1CCc2ccccc21 (stereo not shown) [Example 5.23, 4-Amino-2-(2-furyl)-N-indan-1-yl-pyrimidine-5-carboxamide]		5.32	8.00	8.00		381 nM	
Nc1nc(-c2ccco2)ncc1C(=O)NCc1cccc2cccnc12 [Example 5.25, 4-Amino-2-(2-furyl)-N-(8-quinolylmethyl) pyrimidine-5-carboxamide]	5.83	6.15	8.92	9.08	6.30	15 nM	
Cc1cccnc1CNC(=O)c1cnc(-c2cccc(F)c2)nc1N [Example 4.3, 4-Amino-2-(3-fluorophenyl)-N-[(3-methyl-2-pyridyl)methyl]pyrimidine-5-carboxamide]	6.16	7.31	7.92	7.92	7.27	705 nM	
CCOc1cccc(F)c1CNC(=O)c1cnc(-c2cccc(F)c2)nc1N [Example 5.3, 4-Amino-N-[(2-ethoxy-6-fluoro-phenyl)methyl]-2-(3-fluorophenyl)pyrimidine-5-carboxamide]	6.47		7.70	7.70		1540 nM	
Cc1cccnc1CNC(=O)c1nnc(-c2ccc(F)cc2)nc1N [Example 8, 5-Amino-3-(4-fluorophenyl)-N-[(3-methyl-2-pyridyl)methyl]-1,2,4-triazine-6-carboxamide]	5.96	6.86	7.29	7.29	7.62		
Nc1nc(-c2ccco2)ncc1C(=O)NCc1ncccc1F [Example 5.48, 4-Amino-N-[(3-fluoro-2-pyridyl)methyl]-2-(2-furyl)pyrimidine-5-carboxamide]	6.38	5.10		7.64	5.52		
COc1cc(CNC(=O)c2cnc(-c3cccc(F)c3)nc2N)cc(OC)c1 [Example 10.9, 4-Amino-N-[(3,5-dimethoxyphenyl)methyl]-2-(3-fluorophenyl)pyrimidine-5-carboxamide]	5.93	6.09	6.18	6.18			5.93

The next lines start with results.

pKi [1]	pKi [3]	pKi ([4]; Table 8, Cheng and Prusoff)	pKi ([4]; Table 9, further testing)	pKi [5, 6]	SMILES	IC50 [2]	pKi [5]
7.54	8.18		9.96	7.82	Cc1cccnc1CNC(=O)c1c(N)nc(-c2ccco2)nc1OCCF [Example 20.7, 4-Amino-6-(2-fluoroethoxy)-2-(2-furyl)-N-[(3-methyl-2-pyridyl)methyl]pyrimidine-5-carboxamide]	14 nM	
5.88	6.64	7.49	7.49	6.80	Nc1nc(-c2cccc(F)c2)ncc1C(=O)NCc1c(Cl)cccc1Cl [Example 10.6, 4-Amino-N-[(2,6-dichlorophenyl)methyl]-2-(3-fluorophenyl)pyrimidine-5-carboxamide]	685 nM	
5.97	6.20		8.15	5.65	CC(O)CCNC(=O)c1c(N)nc(-c2cccc(C#N)c2)nc1OCCF (stereo not shown) [Example 24.6, 4-Amino-2-(3-cyanophenyl)-6-(2-fluoroethoxy)-N-(3-hydroxybutyl)pyrimidine-5-carboxamide]	207 nM	
6.31	6.75		9.64	6.83	COc1nc(-c2ccco2)nc(N)c1C(=O)NCc1ncccc1C(F)(F)F [Example 18.1, 4-Amino-2-(2-furyl)-6-methoxy-N-[[3-(trifluoromethyl)-2-pyridyl]methyl]pyrimidine-5-carboxamide]	28 nM	
7.27	7.03	7.89	7.89	6.38	Nc1nc(-c2cccc(F)c2)ncc1C(=O)NCc1ccccc1O [Example 10.1, 4-Amino-2-(3-fluorophenyl)-N-[(2-hydroxyphenyl)methyl]pyrimidine-5-carboxamide]	216 nM	
6.38	7.42	8.33	8.48	6.98	Nc1nc(-c2cccc(F)c2)ncc1C(=O)NCc1cccc2cccnc12 [Example 10.13, 4-Amino-2-(3-fluorophenyl)-N-(8-quinolylmethyl)pyrimidine-5-carboxamide]	926 nM	
7.30	6.10	8.92	9.15		Nc1nc(-c2ccco2)ncc1C(=O)NCc1ccccc1O [Example 11.2, 4-amino-2-(2-furyl)-N-[(2-hydroxyphenyl)methyl]pyrimidine-5-carboxamide]	71 nM	
	6.84		8.09	5.79	Cn1ncnc1CNC(=O)c1c(N)nc(-c2cccc(C#N)c2)nc1OCCF [Example 24.7, 4-Amino-2-(3-cyanophenyl)-6-(2-fluoroethoxy)-N-[(2-methyl-1,2,4-triazol-3-yl)methyl]pyrimidine-5-carboxamide]	212 nM	
